In patent US20250339400A1, “ARTESUNATE POWDERS, PHARMACEUTICAL COMPOSITIONS AND METHODS OF MANUFACTURE” (AMIVAS, INC., priority 2024, published 2025):

Legend:
[1] = Tapped density, Caleva tapped density tester; assay type: physicochemical; details: 35% RH exposure ~24 h; after tapping
[2] = cited from earlier work
[3] = Static charge, Newtry static meter; assay type: physicochemical
Method: Static charge measurements were performed using a Newtry static meter. The powders were accumulated onto a piece of weigh paper and the surface gently leveled. The static meter was held approximately 25 millimeters from the surface of the material to obtain a reading. Three replicate measurements were taken, and an average was calculated.

[4] = Bulk density, graduated cylinder; assay type: physicochemical
[5] = Angle of repose, USP <1174>; assay type: physicochemical
Method: Angle of repose analyses were performed on artesunate powders based upon USP <1174> and under controlled relative humidity conditions. Polytetrafluoroethylene (PTFE) funnels with 8, 10 and 12 mm openings (i.e., Funnel 1, Funnel 2 and Funnel 3, respectively) were used in conjunction with a stainless steel receiving cylinder (Ø=30 mm). Powder samples were placed in the funnel while the funnel opening was closed with a glass slide. Once all the sample powder was loaded in the funnel, the glass slide was removed to allow powder to land on the cylinder below. The top and side of the funnel were tapped to enable the sample powder to drop down. The funnel height was maintained approximately 2-4 cm from the top of the powder pile to minimize the impact of falling powder on the tip of the cone. After the powder cone was built, height of the material forming the cone (h) and the radius (r) of the base were measured by a metal ruler. The angle of repose (θ) was calculated as follows: tan (θ)=h/r. Results were only considered valid when a symmetrical cone of powder was formed. Triplicate tests were attempted for each size of the funnels with the same amount of material being used.

[6] = cited from earlier work; remark: listed apart in the source
[7] = Dynamic Vapor Sorption (DVS) moisture absorbance; assay type: physicochemical; details: 25 °C
Method: The instruments were calibrated with standard weights and a sodium bromide standard for humidity. One sample was equilibrated 50% RH for at least 5 days prior to analysis, while the other sample was equilibrated to 20% RH for at least 5 days prior to analysis. Approximately 10 to 20 mg of the powder samples were loaded into metal-coated quartz pans for analysis. The samples were analyzed at 25° C. in 10% RH steps from 5 to 95% RH (adsorption cycle) and from 95 to 5% RH (desorption cycle). The movement from one step to the next occurred either after satisfying the equilibrium criterion of 0.01% weight change in 30 minutes or, if the equilibrium criterion was not met, after 90 minutes. The percent weight change values were calculated using Microsoft Excel®2016. The results of this example are provided in Tables 6 and 7 and depicted in FIG. 1 (Sample Equilibrated to 20% RH) and FIG. 2 (Sample Equilibrated to 50% RH).

[8] = Tapped density, Caleva tapped density tester; assay type: physicochemical; details: after tapping
Method: The artesunate powders were then passed through a No. 18, 1.00 mm sieve and then added to a 10 mL Cole Parmer graduated cylinder. The graduated cylinder containing the artesunate powders was placed on a Caleva tapped density tester. The samples in the graduated cylinder were then subjected to the following sequence: 10 taps, 500 additional taps, 1250 additional taps, and 1250 additional taps. A volume was taken at the end of each set of taps, and when the volume was consistent for two sets in a row, the measurement was terminated. This final volume was then used to calculate the tapped density. Two replicate measurements were taken, and an average value was calculated.

[9] = 10% RH exposure, at least five days
[10] = 20% RH exposure, at least five days
[11] = 30% RH exposure, at least five days
[12] = 40% RH exposure, at least five days
[13] = 50% RH exposure, at least five days

## C[C@H]1[C@H](OC(=O)CCC(=O)O)O[C@@H]2O[C@@]3(C)CC[C@H]4[C@H](C)CC[C@@H]1[C@@]24OO3 [artesunate powder, 4-oxo-4-[[(1R,4S,5R,8S,9R,10S,12R,13R)-1,5,9-trimethyl-11,14,15,16-tetraoxatetracyclo[10.3.1.0^4,13.0^8,13]hexadecan-10-yl]oxy]butanoic acid]
[1]
  Bulk Density 3 (Tapped Densities of Powder Samples): 0.337 g/mL
[2]; organic solvents, such as acetone and methanol
  solubility in organic solvents: soluble
[2]; water
  solubility in water: slightly soluble
[3]; [9]
  Average Static Reading: 0.36 kV
  Static Reading 1: 0.40 kV
  Static Reading 2: 0.38 kV
  Static Reading 3: 0.30 kV
[3]; 11% RH
  Average Static Reading: 0.36 kV
[3]; [10]
  Average Static Reading: 0.13 kV
  Static Reading 1: 0.12 kV
  Static Reading 2: 0.13 kV
  Static Reading 3: 0.13 kV
[3]; 22% RH
  Average Static Reading: 0.13 kV
[3]; [11]
  Average Static Reading: −0.04 kV
  Static Reading 1: −0.04 kV
  Static Reading 2: −0.04 kV
  Static Reading 3: −0.04 kV
[3]; [12]
  Average Static Reading: 0.01 kV
  Static Reading 1: 0.02 kV
  Static Reading 2: 0.01 kV
  Static Reading 3: 0.00 kV
[3]; [13]
  Average Static Reading: −0.05 kV
  Static Reading 1: −0.05 kV
  Static Reading 2: −0.05 kV
  Static Reading 3: −0.05 kV
[4]; 20% RH exposure ~24 h
  Average Bulk Density: 0.203 g/mL
  Bulk Density 1: 0.193 g/mL
  Bulk Density 2: 0.231 g/mL
[4]; 50% RH exposure ~24 h
  Average Bulk Density: 0.203 g/mL
  Bulk Density 1: 0.200 g/mL
  Bulk Density 2: 0.208 g/mL
[5]; 35% RH, Average of Funnels 1-3
  angle of repose: 39 degrees
[5]; 35% RH, Funnel 1 (8 mm opening)
  angle of repose: 35 degrees
[5]; 35% RH, Funnel 2 (10 mm opening)
  angle of repose: 38 degrees
[5]; 35% RH, Funnel 3 (12 mm opening)
  angle of repose: 45 degrees
[5]; 35% relative humidity
  flow properties based on USP 1174: acceptable
[5]; 50% RH, Average of Funnels 1-3
  angle of repose: 43 degrees
[5]; 50% RH, Funnel 1 (8 mm opening)
  angle of repose: 42 degrees
[5]; 50% RH, Funnel 2 (10 mm opening)
  angle of repose: 45 degrees
[5]; 50% RH, Funnel 3 (12 mm opening)
  angle of repose: 42 degrees
[5]; 50% relative humidity
  flow property based on USP 1174: passable but may hang up
[6]; basic and acidic conditions
  stability under basic and acidic conditions: unstable
[6]; moisture and heat (Agnihotri J. et al, 2013)
  degradation by moisture and heat: susceptible to degradation
[7]; sample equilibrated to 20% RH, RH step 95, total 360 min
  % change (DVS): 100.08%
[7]; sample equilibrated to 20% RH, adsorption, RH step 5, total 0 min
  % change (DVS): 100.00%
[7]; sample equilibrated to 20% RH, adsorption, RH step 5, total 60 min
  % change (DVS): 100.00%
[7]; sample equilibrated to 20% RH, adsorption, RH step 15, total 90 min
  % change (DVS): 100.02%
[7]; sample equilibrated to 20% RH, adsorption, RH step 25, total 120 min
  % change (DVS): 100.02%
[7]; sample equilibrated to 20% RH, adsorption, RH step 35, total 150 min
  % change (DVS): 100.03%
[7]; sample equilibrated to 20% RH, adsorption, RH step 45, total 180 min
  % change (DVS): 100.03%
[7]; sample equilibrated to 20% RH, adsorption, RH step 55, total 210 min
  % change (DVS): 100.03%
[7]; sample equilibrated to 20% RH, adsorption, RH step 65, total 240 min
  % change (DVS): 100.04%
[7]; sample equilibrated to 20% RH, adsorption, RH step 75, total 270 min
  % change (DVS): 100.05%
[7]; sample equilibrated to 20% RH, adsorption, RH step 85, total 300 min
  % change (DVS): 100.06%
[7]; sample equilibrated to 20% RH, desorption, RH step 5, total 630 min
  % change (DVS): 100.04%
[7]; sample equilibrated to 20% RH, desorption, RH step 15, total 600 min
  % change (DVS): 100.04%
[7]; sample equilibrated to 20% RH, desorption, RH step 25, total 570 min
  % change (DVS): 100.04%
[7]; sample equilibrated to 20% RH, desorption, RH step 35, total 540 min
  % change (DVS): 100.04%
[7]; sample equilibrated to 20% RH, desorption, RH step 45, total 510 min
  % change (DVS): 100.05%
[7]; sample equilibrated to 20% RH, desorption, RH step 55, total 480 min
  % change (DVS): 100.06%
[7]; sample equilibrated to 20% RH, desorption, RH step 65, total 450 min
  % change (DVS): 100.06%
[7]; sample equilibrated to 20% RH, desorption, RH step 75, total 420 min
  % change (DVS): 100.06%
[7]; sample equilibrated to 20% RH, desorption, RH step 85, total 390 min
  % change (DVS): 100.07%
[7]; sample equilibrated to 50% RH, RH step 95, total 360 min
  % change (DVS): 100.08%
[7]; sample equilibrated to 50% RH, adsorption, RH step 5, total 0 min
  % change (DVS): 100.00%
[7]; sample equilibrated to 50% RH, adsorption, RH step 5, total 30 min
  % change (DVS): 100.01%
[7]; sample equilibrated to 50% RH, adsorption, RH step 15, total 60 min
  % change (DVS): 100.01%
[7]; sample equilibrated to 50% RH, adsorption, RH step 25, total 90 min
  % change (DVS): 100.01%
[7]; sample equilibrated to 50% RH, adsorption, RH step 35, total 120 min
  % change (DVS): 100.01%
[7]; sample equilibrated to 50% RH, adsorption, RH step 45, total 150 min
  % change (DVS): 100.02%
[7]; sample equilibrated to 50% RH, adsorption, RH step 55, total 180 min
  % change (DVS): 100.02%
[7]; sample equilibrated to 50% RH, adsorption, RH step 65, total 240 min
  % change (DVS): 100.03%
[7]; sample equilibrated to 50% RH, adsorption, RH step 75, total 270 min
  % change (DVS): 100.04%
[7]; sample equilibrated to 50% RH, adsorption, RH step 85, total 300 min
  % change (DVS): 100.05%
[7]; sample equilibrated to 50% RH, desorption, RH step 5, total 660 min
  % change (DVS): 100.02%
[7]; sample equilibrated to 50% RH, desorption, RH step 15, total 630 min
  % change (DVS): 100.02%
[7]; sample equilibrated to 50% RH, desorption, RH step 25, total 600 min
  % change (DVS): 100.02%
[7]; sample equilibrated to 50% RH, desorption, RH step 35, total 570 min
  % change (DVS): 100.02%
[7]; sample equilibrated to 50% RH, desorption, RH step 45, total 540 min
  % change (DVS): 100.03%
[7]; sample equilibrated to 50% RH, desorption, RH step 55, total 510 min
  % change (DVS): 100.04%
[7]; sample equilibrated to 50% RH, desorption, RH step 65, total 480 min
  % change (DVS): 100.05%
[7]; sample equilibrated to 50% RH, desorption, RH step 75, total 450 min
  % change (DVS): 100.05%
[7]; sample equilibrated to 50% RH, desorption, RH step 85, total 420 min
  % change (DVS): 100.06%
[8]; 20% RH exposure ~24 h
  Average Bulk Density (Tapped Densities of Powder Samples): 0.303 g/mL
  Bulk Density 1 (Tapped Densities of Powder Samples): 0.307 g/mL
  Bulk Density 2 (Tapped Densities of Powder Samples): 0.318 g/mL
  Bulk Density 3 (Tapped Densities of Powder Samples): 0.283 g/mL
[8]; 35% RH exposure ~24 h
  Average Bulk Density (Tapped Densities of Powder Samples): 0.318 g/mL
  Bulk Density 1 (Tapped Densities of Powder Samples): 0.317 g/mL
  Bulk Density 2 (Tapped Densities of Powder Samples): 0.300 g/mL
[8]; 50% RH exposure ~24 h
  Average Bulk Density (Tapped Densities of Powder Samples): 0.317 g/mL
  Bulk Density 1 (Tapped Densities of Powder Samples): 0.320 g/mL
  Bulk Density 2 (Tapped Densities of Powder Samples): 0.312 g/mL
  Bulk Density 3 (Tapped Densities of Powder Samples): 0.319 g/mL
